Test results: patent US20260256136A1, “STABILIZATION OF ALDEHYDES AND/OR AN ALCOHOLS” (priority 2022, published 2026)

Key:
[1] = Accelerated storage test of aldehyde mixture with additive, 40 ppm Cu (Example 1); format: physicochemical; conditions: after 55° C. 14 days without cap; for Z9-16:Ald: before test 4.3, blank 3.066023; for C16:Acid: before test 6.7, blank 18.84135; for 16:Ald: before test 7.5, blank 6.659339; for Z11-16Ald: before test 69.4, blank 54.83784, in % (unit assumed)
Procedure: To a mixture of aldehydes containing; (Z)-9-hexadecenal, (Z)-11-hexadecenal, hexadecanal, (Z)-11-hexadecen-1-ol, (Z)-11-hexadecenoic acid and 40 ppm Cu was added an additive as indicated in table 1 below. The mixture was thoroughly mixed and heated without cap in an oven at 55° C. for 14 days as an accelerated storage test.

[2] = Accelerated storage test of aldehyde mixture with additive, 10 ppm Cu (Example 2); conditions: after 55° C. 14 days without cap; for C16:Acid: before test 1.05, blank 17.72; for Z9-16:Ald: before test 5.09, blank 3.05; for 16:Ald: before test 8.41, blank 6.60; for Z11-16Ald: before test 75.31, blank 54.31
Procedure: The term “accelerated storage test” as used herein refers to a well known protocol for investigating the stability of a particular composition. The protocol is described in for example the memorandum dated 16 Nov. 2012 from The United States Environmental Protection Agency Washington, D.C. 20460 with the subject title “Accelerated Storage Stability and Corrosion Characteristics Study Protocol”. The protocol evaluates product stability at 54° C.±2° C. for 14 days.

[3] = Storage test of aldehyde mixture containing 4-hydroxy-TEMPO and 10 ppm Copper with additive (Example 3); conditions: for Z11-16:OH / Z10-15:Ald / 16:Acid / Z9-16:Ald / 16:Ald / Z11-16:Ald: after 55 C 14 days without cap; for Z11-16:OH: before test 2.16, blank 1.44; for Z10-15:Ald: before test 2.61, blank 2.72; for 16:Acid: before test 3.01, blank 7.94; for Z9-16:Ald: before test 5.33, blank 3.91; for 16:Ald: before test 8.16, blank 6.48; for Z11-16:Ald: before test 74.98, blank 58.18
Procedure: To a mixture of aldehydes containing; 4-hydroxy-TEMPO (4-hydroxy-2,2,6,6-tetramethylpiperidin-1-oxyl), (Z)-10-pentenenal, (Z)-9-hexadecenal, (Z)-11-hexadecenal, hexadecanal, (Z)-11-hexadecen-1-ol (Z)-11-hexadecenoic acid and 10 ppm Copper in the composition listed in table 3 below was added up to 1% of an additive in table below. The mixture was thoroughly mixed and heated without cap in an oven at 55 C for 14 days.

[4] = Storage test of aldehyde mixture containing 4-hydroxy-TEMPO with additive (Example 4); format: physicochemical; conditions: for Heptane / Z11-16:OH / 16:Acid / OH tempo / Z9-16:Ald / 15-1:Ald / 16:Ald / Z11-16:Ald: after 55° C. 14 days without cap; for Heptane: before test 0.04, without additive 0.04; for Z11-16:OH: before test 0.27, without additive 0.06; for 16:Acid: before test 1.05, without additive 6.14; for OH tempo: before test 1.19, without additive 1.11; for Z9-16:Ald: before test 5.09, without additive 3.71; for 15-1:Ald: before test 7.27, without additive 5.83; for 16:Ald: before test 8.41, without additive 6.64; for Z11-16:Ald: before test 75.31, without additive 57.21, in % (unit assumed)
Procedure: To a mixture of aldehydes containing; 4-hydroxy-TEMPO (4-hydroxy-2,2,6,6-tetramethylpiperidin-1-oxyl), (Z)-10-pentenenal, (Z)-9-hexadecenal, (Z)-11-hexadecenal, hexadecanal, (Z)-11-hexadecen-1-ol and (Z)-11-hexadecenoic acid in the composition listed in table 4 below was added up to 1% of an additive in table below. The mixture was thoroughly mixed and heated without cap in an oven at 55° C. for 14 days.

Structure (SMILES) | Z9-16:Ald [1] | C16:Acid [1] | 16:Ald [1] | Z11-16Ald [1] | C16:Acid [2] | Z9-16:Ald [2] | 16:Ald [2] | Z11-16Ald [2] | also measured
CCCOC(=O)c1cc(O)c(O)c(O)c1 [Propyl Gallate] | 3.464 | 14.55 | 7.376 | 61.55 | 11.32 | 3.83 | 3.81 | 67.75 | 
CC(C)(C)c1cc(O)ccc1O [TBHQ] | 3.367 | 16.52 | 6.913 | 53.69 | 10.34 | 3.67 | 7.75 | 65.65 | 
Cn1ccnc1S [2-mercapto-1-methylimidazole] |  |  |  |  |  |  |  |  | Z11-16:OH ([3]; 10 ppm Copper): 1.92; Z10-15:Ald ([3]; 10 ppm Copper): 2.88; 16:Acid ([3]; 10 ppm Copper): 2.93; Z9-16:Ald ([3]; 10 ppm Copper): 4.83; 16:Ald ([3]; 10 ppm Copper): 7.82; Z11-16:Ald ([3]; 10 ppm Copper): 72.34; suppressing acid formation and/or degradation of the aldehydes [4]: particularly efficient at suppressing acid formation and/or degradation of the aldehydes; Heptane [4]: 0.04; Z11-16:OH [4]: 0.28; 16:Acid [4]: 1.12; OH tempo [4]: 1.12; Z9-16:Ald [4]: 4.88; 15-1:Ald [4]: 6.65; 16:Ald [4]: 8.22; Z11-16:Ald [4]: 73.41
Cc1nnc(S)s1 [5-Methyl-1,3,4-thiadiazole-2-thiol] |  |  |  |  |  |  |  |  | Z11-16:OH ([3]; 10 ppm Copper): 2.12; Z10-15:Ald ([3]; 10 ppm Copper): 2.74; 16:Acid ([3]; 10 ppm Copper): 3.02; Z9-16:Ald ([3]; 10 ppm Copper): 4.69; 16:Ald ([3]; 10 ppm Copper): 7.81; Z11-16:Ald ([3]; 10 ppm Copper): 71.97; suppressing acid formation and/or degradation of the aldehydes [4]: particularly efficient at suppressing acid formation and/or degradation of the aldehydes; Heptane [4]: 0.04; Z11-16:OH [4]: 0.29; 16:Acid [4]: 1.38; OH tempo [4]: 1.14; Z9-16:Ald [4]: 4.38; 15-1:Ald [4]: 6.71; 16:Ald [4]: 8.04; Z11-16:Ald [4]: 71.38
COc1ccc(O)c(C(C)(C)C)c1 [BHA] | 3.364 | 15.55 | 7.158 | 59.48 | 12.64 | 3.46 | 7.33 | 61.54 | 
CN(C)CCO [Dimethylethanolamine] | 0 | 11.55 | 1.242 | 8.128 | 17.70 | 3.09 | 6.65 | 54.82 | 
Sc1nc2ccccc2[nH]1 [2-mercapto-Benzimidazole] |  |  |  |  |  |  |  |  | OH tempo [3]: 1.11; suppressing acid formation and degradation of the aldehydes ([3]; 55 C 14 days, 10 ppm Copper): particularly efficient at suppressing acid formation and degradation of the aldehydes; Z11-16:OH ([3]; 10 ppm Copper): 1.87; Z10-15:Ald ([3]; 10 ppm Copper): 3.10; 16:Acid ([3]; 10 ppm Copper): 3.80; Z9-16:Ald ([3]; 10 ppm Copper): 4.70; 16:Ald ([3]; 10 ppm Copper): 7.53; Z11-16:Ald ([3]; 10 ppm Copper): 69.33; Heptane [4]: 0.04; Z11-16:OH [4]: 0.00; 16:Acid [4]: 4.23; OH tempo [4]: 1.05; Z9-16:Ald [4]: 3.43; 15-1:Ald [4]: 6.16; 16:Ald [4]: 6.97; Z11-16:Ald [4]: 59.82
Cc1cc(-n2nc3ccc(Cl)cc3n2)c(O)c(C(C)(C)C)c1 [Sumisorb] | 3.325 | 17.1 | 6.835 | 52.4909 | 15.21 | 3.20 | 6.81 | 56.62 | 
[Na+].[OH-] [Sodium Hydroxide] | 2.927 | 16.74 | 6.224 | 51.62 | 12.93 | 3.18 | 6.65 | 55.97 | 
C1COCCN1 [Morpholine] | 2.255 | 12.35 | 4.755 | 40.03 | 12.54 | 3.23 | 6.84 | 57.13 | 
Cc1c(C)c2c(c(C)c1O)CCC(C)(CCCC(C)CCCC(C)CCCC(C)C)O2 (racemic) [Tocopherol] | 3.379 | 17.008 | 6.914 | 54.67 | 17.70 | 3.09 | 6.65 | 54.82 | 
Cc1ccc(O)c(-n2nc3ccccc3n2)c1 [Tinuvin P] | 3.085 | 19.1541 | 6.634 | 54.35 | 17.66 | 3.07 | 6.57 | 54.01 | 
CC1(C)CC(OC(=O)CCCCCCCCC(=O)OC2CC(C)(C)NC(C)(C)C2)CC(C)(C)N1 [Tinuvin 770] | 3.135 | 18.22 | 6.749 | 55.81 | 16.99 | 3.12 | 6.62 | 54.84 | 
C[S+](C)[O-] [DMSO] | 3.061 | 19.17 | 6.722 | 55.24 | 16.74 | 3.10 | 6.68 | 55.41 | 
OCC(O)CO [Glycerol] | 3.115 | 18.83 | 6.736 | 54.86 | 16.74 | 0.00 | 6.75 | 55.52 | 
Cc1cc(C(C)(C)C)c(O)c(C(C)(C)C)c1 [BHT] | 3.425 | 16.05 | 6.958 | 54.06 | 10.43 | 3.73 | 7.73 | 65.80 | 
O=S1(=O)CCCC1 [Sulfolane] | 3.077 | 18.34 | 6.666 | 54.91 | 16.92 | 3.08 | 6.60 | 54.29 | 
